Our source for the IC50 values is patent US7595320B2, “Hydrazinocarbonyl-thieno[2,3-C]pyrazoles, process for preparing them, compositions containing them and use thereof” (Aventis Pharma S.A., priority 2005, dated 2009).

Common to all, as to assay type: biochemical
Assay [1] addresses T1, Tie2 (Homo sapiens, UniProt Q02763).
T1 construct: amino acids of the intracellular domain 776-1124; made in house; host or cells: baculovirus expression (pFastBacGT vector)
The experiment in a line: Tie2 kinase test, phosphorylation of PLC with GST-Tie2. The note with it: GST-Tie2 intracellular domain 776-1124.

In assay [2] the target is T2, Aurora2 (Homo sapiens, UniProt O14965).
T2 construct: Aurora2: whole recombinant protein comprising an N-terminal histidine tail; His tag (N); made in house; host or cells: E. coli
T2 sequence (O14965 1-403): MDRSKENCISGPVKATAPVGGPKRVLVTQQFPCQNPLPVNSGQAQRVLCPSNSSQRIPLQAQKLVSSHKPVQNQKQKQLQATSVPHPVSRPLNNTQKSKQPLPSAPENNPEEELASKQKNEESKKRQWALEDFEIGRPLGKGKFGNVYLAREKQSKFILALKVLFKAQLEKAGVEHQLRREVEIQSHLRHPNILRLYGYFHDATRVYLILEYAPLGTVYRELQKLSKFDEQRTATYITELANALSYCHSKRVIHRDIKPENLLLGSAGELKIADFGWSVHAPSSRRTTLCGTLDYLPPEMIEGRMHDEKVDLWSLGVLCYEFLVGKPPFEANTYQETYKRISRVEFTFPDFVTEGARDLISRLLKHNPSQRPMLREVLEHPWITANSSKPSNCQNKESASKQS
The experiment in a line: Aurora2 enzymatic test, NuMA phosphorylation with [33P]ATP, Flashplate. The note with it: whole recombinant protein, 1 μM ATP. An outline of the steps:
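Full-length His-tagged Aurora2 (E. coli, >82% pure) at 10 nM phosphorylated 500 nM His-NuMA fragment on Ni-chelate Flashplates. Conditions were pH 7.5 Tris buffer with 10 mM MgCl2, 1 μM ATP plus [33P]ATP, 30 min at 37 °C.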

The target in assay [3] is T3, Aurora1 (Homo sapiens, UniProt Q96GD4).
T3 construct: His tag (N); made in house
The experiment in a line: Aurora1 enzymatic test, NuMA phosphorylation with [33P]ATP, Flashplate. The note with it: Aurora-B/INCENP-C3 recombinant complex, 1 μM ATP. An outline of the steps: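 Recombinant His-tagged Aurora-B/INCENP-C3 complex (10 nM) phosphorylates 500 nM His-NuMA fragment with 1 µM ATP plus [33P]ATP, 30 minutes at 37° C in Tris pH 7.5 with 5 mM MgCl2, on nickel-chelate Flashplates. Incorporated 33P counted; percent inhibition versus enzyme control after no-enzyme background subtraction.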

Assay [4] concerns the target T4, CDK2/cycline E (Homo sapiens, UniProt P24941).
T4 construct: made in house; host or cells: Sf21 insect cells (baculovirus coinfection)
The assay is described as follows: CDK2/cyclineE Flashplate test in 96-well format. The note with it: CDK2/cycline E complex, 1 μM ATP. A digest of the protocol:
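Recombinant human CDK2/cyclin E (His-tagged cyclin E, coexpressed in Sf21 cells), 20 nM, phosphorylates biotinylated pRb peptide (10 μM) with 1 μM ATP plus [γ-33P]ATP in HEPES pH 7.5, MgCl2, DTT at 30 °C. Inhibitors tested at 10 μM down to 0.014 μM; 33P incorporation read by scintillation on streptavidin plates.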

Counter-ions that a name gives are not always drawn.

T3 sequence (Q96GD4 whole entry, species assumed): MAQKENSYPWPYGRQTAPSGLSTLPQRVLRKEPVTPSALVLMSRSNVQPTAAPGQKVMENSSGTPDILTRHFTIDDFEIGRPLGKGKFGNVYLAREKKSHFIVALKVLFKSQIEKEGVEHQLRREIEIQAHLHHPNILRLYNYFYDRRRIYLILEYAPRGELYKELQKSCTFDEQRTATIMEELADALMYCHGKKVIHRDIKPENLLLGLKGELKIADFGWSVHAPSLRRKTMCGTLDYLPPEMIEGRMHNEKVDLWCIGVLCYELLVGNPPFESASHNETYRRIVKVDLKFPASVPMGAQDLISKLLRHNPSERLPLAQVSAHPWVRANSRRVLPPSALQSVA
T3 sequence (Q9NQS7 835-903 partner limits assumed, species assumed): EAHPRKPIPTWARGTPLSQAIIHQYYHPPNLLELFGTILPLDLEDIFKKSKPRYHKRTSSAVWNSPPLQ
T1 sequence (Q02763 776-1124): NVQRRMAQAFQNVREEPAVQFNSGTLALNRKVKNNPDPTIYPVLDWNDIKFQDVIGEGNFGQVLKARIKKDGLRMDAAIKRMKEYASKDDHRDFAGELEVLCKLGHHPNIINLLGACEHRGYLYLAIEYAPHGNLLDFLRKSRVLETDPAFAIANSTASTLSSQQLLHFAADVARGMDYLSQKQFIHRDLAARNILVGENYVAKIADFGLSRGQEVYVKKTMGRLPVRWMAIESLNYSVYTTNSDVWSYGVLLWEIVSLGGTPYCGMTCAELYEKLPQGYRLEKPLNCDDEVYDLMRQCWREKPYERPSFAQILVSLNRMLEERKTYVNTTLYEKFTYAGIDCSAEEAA

Take `CN(NC(=O)c1cc2c(NC(=O)c3ccc(CN4CCCOCC4)cc3)n[nH]c2s1)c1ccccc1` [Example 21a, N-[5-(N′-methyl-N′-phenylhydrazinocarbonyl)-1H-thieno[2,3-c]pyrazol-3-yl]-4-perhydro-1,4-oxazepin-4-ylmethylbenzamide]: the IC50 in assay [1] was 430 nM; in assay [2], 14 nM; in assay [3] it was 55 nM; in assay [4] it was 122 nM.

With `CN(NC(=O)c1cc2c(NC(=O)c3ccc(CN4CCCOCC4)cc3)n[nH]c2s1)c1ccc(Cl)cc1` [Example 21b, N-{5-[N′-(4-chlorophenyl)-N′-methylhydrazinocarbonyl]-1H-thieno[2,3-c]pyrazol-3-yl}-4-perhydro-1,4-oxazepin-4-ylmethylbenzamide], the IC50 in assay [1] came to 301 nM; in assay [2], 34 nM; in assay [3] it was 160 nM; in assay [4] it was 82 nM.

Take `CN(NC(=O)c1cc2c(NC(=O)c3cccc(CN4CCOCC4)c3)n[nH]c2s1)c1ccccc1` [Example 22a, N-[5-(N′-methyl-N′-phenylhydrazinocarbonyl)-1H-thieno[2,3-c]pyrazol-3-yl]-3-morpholin-4-ylmethylbenzamide]: the IC50 in assay [1] stood at 2210 nM; in assay [2] it was 81 nM; in assay [3], 147 nM; in assay [4], 717 nM.

With `CN(NC(=O)c1cc2c(NC(=O)c3cccc(CN4CCOCC4)c3)n[nH]c2s1)c1ccc(Cl)cc1` [Example 22b, N-{5-[N′-(4-chlorophenyl)-N′-methylhydrazinocarbonyl]-1H-thieno[2,3-c]pyrazol-3-yl}-3-morpholin-4-ylmethylbenzamide], the IC50 in assay [1] stood at 3190 nM; in assay [2], 762 nM; in assay [3], 956 nM; in assay [4], 703 nM.

On to `CCN(CC)CCNCc1ccc(C(=O)Nc2n[nH]c3sc(C(=O)NN(C)c4ccccc4)cc23)cc1` [Example 23a, 4-[(2-diethylaminoethylamino)methyl]-N-[5-(N′-methyl-N′-phenylhydrazinocarbonyl)-1H-thieno[2,3-c]pyrazol-3-yl]-benzamide], for which the half-inhibitory concentration (IC50) in assay [1] is 431 nM; in assay [2], 65 nM; in assay [3], 199 nM; in assay [4], 143 nM.

Turning to `CCN(CC)CCNCc1ccc(C(=O)Nc2n[nH]c3sc(C(=O)NN(C)c4ccc(Cl)cc4)cc23)cc1` [Example 23b, N-{5-[N′-(4-chlorophenyl)-N′-methylhydrazinocarbonyl]-1H-thieno[2,3-c]pyrazol-3-yl}-4-[(2-diethylaminoethylamino)methyl]benzamide], the half-maximal inhibitory concentration (IC50) is 543 nM in assay [1], 101 nM in assay [2], 259 nM in assay [3] and 138 nM in assay [4].

As for `CC(C)N(Cc1ccc(C(=O)Nc2n[nH]c3sc(C(=O)NN(C)c4ccccc4)cc23)cc1)C(C)C` [Example 25, 4-[(diisopropylamino)methyl]-N-[5-(N′-methyl-N′-phenylhydrazinocarbonyl)-1H-thieno[2,3-c]pyrazol-3-yl]benzamide trifluoroacetate], the IC50 in assay [1] was found to be 328 nM; in assay [2], 25 nM; in assay [3], 249 nM; in assay [4], 317 nM.

As for `COc1ccc(C(=O)Nc2n[nH]c3sc(C(=O)NNCc4ccccc4)cc23)cc1` [Example 26, N-[5-(N′-benzylhydrazinocarbonyl)-1H-thieno[2,3-c]pyrazol-3-yl]-4-methoxybenzamide], the IC50 is 175 nM in assay [1], 23 nM in assay [2], 42 nM in assay [3] and 75 nM in assay [4].

With `COc1ccc(C(=O)Nc2n[nH]c3sc(C(=O)NNc4ccccn4)cc23)cc1` [Example 27, 4-methoxy-N-[5-(N′-pyrid-2-ylhydrazinocarbonyl)-1H-thieno[2,3-c]pyrazol-3-yl]benzamide], the 50% inhibitory concentration (IC50) in assay [1] came to 294 nM; in assay [2], 31 nM; in assay [3], 51 nM; in assay [4], 669 nM.

Turning to `CN1CCN(c2ccc(C(=O)Nc3n[nH]c4sc(C(=O)NN(C)c5ccc(Cl)cc5)cc34)cc2)CC1` [Example 28, N-{5-[N′-(4-chlorophenyl)-N′-methylhydrazinocarbonyl]-1H-thieno[2,3-c]pyrazol-3-yl}-4-(4-methylpiperazin-1-yl)benzamide], the IC50 came out at 106 nM in assay [1], 2 nM in assay [2], 6 nM in assay [3] and 132 nM in assay [4].

With `COC[C@@H]1CCCN1NC(=O)c1cc2c(NC(=O)c3ccc(N4CCN(C)CC4)cc3)n[nH]c2s1` [Example 29, N-(2-methoxymethylpyrrolidin-1-yl)-3-[4-(4-methylpiperazin-1-yl)benzoylamino]-1H-thieno[2,3-c]pyrazole-5-carboxamide], the IC50 in assay [1] stood at 163 nM; in assay [2] it was 11 nM; in assay [3], 28 nM; in assay [4] it was 585 nM.

Take `CN1CCN(c2ccc(C(=O)Nc3n[nH]c4sc(C(=O)NN(C)Cc5ccccc5)cc34)cc2)CC1` [Example 30, N-[5-(N′-benzyl-N′-methylhydrazinocarbonyl)-1H-thieno[2,3-c]pyrazol-3-yl]-4-(4-methylpiperazin-1-yl)benzamide]: the half-inhibitory concentration (IC50) in assay [1] was determined as 128 nM; in assay [2], 6 nM; in assay [3] it was 12 nM; in assay [4], 221 nM.

As to `CN1CCN(c2ccc(C(=O)Nc3n[nH]c4sc(C(=O)NN5CCCCC5)cc34)cc2)CC1` [Example 31, N-(piperidin-1-yl)-3-[4-(4-methylpiperazin-1-yl)benzoylamino]-1H-thieno[2,3-c]pyrazole-5-carboxamide], the IC50 was 3060 nM in assay [1], 26 nM in assay [2], 96 nM in assay [3] and 275 nM in assay [4].

Take `CN1CCN(c2ccc(C(=O)Nc3n[nH]c4sc(C(=O)NNCc5ccccc5)cc34)cc2)CC1` [Example 32, N-[5-(N′-benzylhydrazinocarbonyl)-1H-thieno[2,3-c]pyrazol-3-yl]-4-(4-methylpiperazin-1-yl)benzamide]: the concentration for half-maximal inhibition (IC50) was 38 nM in assay [1], 4 nM in assay [2], 25 nM in assay [3] and 109 nM in assay [4].

As to `CN1CCN(c2ccc(C(=O)Nc3n[nH]c4sc(C(=O)NN(Cc5ccccc5)c5ccccc5)cc34)cc2)CC1` [Example 34, N-[5-(N′-benzyl-N′-phenylhydrazinocarbonyl)-1H-thieno[2,3-c]pyrazol-3-yl]-4-(4-methylpiperazin-1-yl)benzamide], the half-maximal inhibitory concentration (IC50) in assay [1] came to 38 nM; in assay [2] it was 5 nM; in assay [3] it was 13 nM; in assay [4], 1580 nM.

Take `CN1CCN(c2ccc(C(=O)Nc3n[nH]c4sc(C(=O)NN(C)c5ccccc5)cc34)cc2)CC1` [Example 35, N-[5-(N′-methyl-N′-phenylhydrazinocarbonyl)-1H-thieno[2,3-c]pyrazol-3-yl]-4-(4-methylpiperazin-1-yl)benzamide]: the IC50 in assay [1] stood at 29 nM; in assay [2], 4 nM; in assay [3] it was 4 nM; in assay [4] it was 121 nM.

As to `CN1CCN(c2ccc(C(=O)Nc3n[nH]c4sc(C(=O)NN(CC5CCC5)c5ccc(Cl)cc5)cc34)cc2)CC1` [Example 36, N-{5-[N′-(4-chlorophenyl)-N′-cyclobutylmethylhydrazinocarbonyl]-1H-thieno[2,3-c]pyrazol-3-yl}-4-(4-methylpiperazin-1-yl)-benzamide], the IC50 in assay [1] is 6 nM; in assay [2], 5 nM; in assay [3], 9 nM; in assay [4], 1920 nM.

Consider `CCN(NC(=O)c1cc2c(NC(=O)c3ccc(N4CCN(C)CC4)cc3)n[nH]c2s1)c1ccc(F)cc1` [Example 37, N-{5-[N′-ethyl-N′-(4-fluorophenyl)hydrazinocarbonyl]-1H-thieno[2,3-c]pyrazol-3-yl}-4-(4-methylpiperazin-1-yl)benzamide], for which the IC50 in assay [1] came to 56 nM; in assay [2], 20 nM; in assay [3], 32 nM; in assay [4], 54 nM.

In the case of `COCCN(NC(=O)c1cc2c(NC(=O)c3ccc(N4CCN(C)CC4)cc3)n[nH]c2s1)c1ccc(F)cc1` [Example 38, N-{5-[N′-(4-fluorophenyl)-N′-(2-methoxyethyl)-hydrazinocarbonyl]-1H-thieno[2,3-c]pyrazol-3-yl}-4-(4-methylpiperazin-1-yl)-benzamide], the IC50 was determined as 58 nM in assay [1], 4 nM in assay [2], 21 nM in assay [3] and 214 nM in assay [4].

For orientation: IC50 means the concentration that gives 50% inhibition.
